# Assay results taken from the supplement of paper PMC10933113.
# Counter-ions that a name gives are not always drawn. ± gives the uncertainty stated by the source.
# Tests used:
# [1] = tested on: KeratinoSens (HaCaT ARE-luciferase) cells; assay: cytotoxicity AC50 (CellTiter-Fluor viability); higher = less cytotoxic; conditions: exposure time: 24 h
# THP-1 = assay: efficacy of IL-8 induction relative to DMSO (% activity); higher = stronger induction; conditions: exposure time: 18 h
# [2] = tested on: lysine peptide Ac-RFAAKAA-COOH; assay: efficacy of lysine peptide change (negative = depletion) (% activity); higher = less depletion; conditions: incubation time: 24 h
# [3] = tested on: cysteine peptide Ac-RFAACAA-COOH; assay: efficacy of cysteine peptide change (negative = depletion) (% activity); higher = less depletion; conditions: incubation time: 24 h
# [4] = tested on: KeratinoSens (HaCaT ARE-luciferase) cells; assay: efficacy of ARE luciferase induction relative to DMSO (% activity over DMSO); higher = stronger induction; conditions: exposure time: 24 h
# [5] = tested on: cysteine peptide Ac-RFAACAA-COOH; assay: AC50 of cysteine peptide concentration-response (direction given by sign of efficacy); higher = less potent; conditions: incubation time: 24 h
Compound,efficacy of lysine peptide change [2],efficacy of cysteine peptide change [3],AC50 [5] [µM],cytotoxicity AC50 [1] [µM],efficacy of IL-8 induction (THP-1),efficacy of ARE luciferase induction [4]
CCOP(=S)(OCC)SC(CCl)N1C(=O)c2ccccc2C1=O (centres undefined) [Dialifor],-69.5 ± 7.4,-101 ± 9.9,3.87 ± 0.66,66.8 ± 15,5.64 ± 12,63 ± 32
ClC1=C(Cl)C2(Cl)C3C(Cl)C(Cl)CC3C1(Cl)C2(Cl)Cl (centres undefined) [Chlordane],-2.38 ± 11,-56.1 ± 16,50.3 ± 5.8,41.4 ± 2.8,49.6 ± 10,-18.6 ± 53
CC(C)Nc1ccc(Nc2ccccc2)cc1 [N-Isopropyl-N'-phenyl-p-phenylenediamine],-5.38 ± 9.3,-67.5 ± 20,2.82 ± 1,20.5 ± 6.5,40.6 ± 19,-24.8 ± 11
O=C(O)c1ccccc1C(=O)Nc1cccc2ccccc12 [Naptalam*],10.2 ± 26,-104 ± 4.3,4 ± 1.3,25.1,7.99 ± 7,61.4 ± 78
"COc1cc(C(C)(C)C)c(O)c(C(C)(C)C)c1 [2,6-Di-tert-butyl-4-methoxyphenol]",3.75 ± 13,-96.8 ± 3.7,43.4 ± 7.4,,0,17.3 ± 33
COc1ccccc1N [2-Methoxyaniline hydrochloride],-4.19 ± 7.3,-74 ± 18,45.5 ± 10,,0,68 ± 63
C=CC(=O)OCCn1c(=O)n(CCOC(=O)C=C)c(=O)n(CCOC(=O)C=C)c1=O,-0.37 ± 14,-99.7 ± 6.5,7.11 ± 0.82,24.7 ± 9.8,20.8 ± 5.9,47.2 ± 67
CS/C(C)=N\OC(=O)N(C)SN(C)C(=O)O/N=C(\C)SC [Thiodicarb],38.2 ± 2.7,-96.8 ± 3.2,0.59 ± 0.11,,10.8 ± 9.8,-25.2 ± 33
O=C1C(Cl)=C(Cl)C(=O)C(Cl)=C1Cl [Chloranil],-124 ± 7.8,-73.9 ± 2.3,0.65 ± 0.34,28.2,25.9 ± 3.2,32.8 ± 9.5
CCOC(=O)CC(SP(=S)(OC)OC)C(=O)OCC (centres undefined) [Malathion],38.6 ± 20,-114 ± 8.5,3.05 ± 0.2,,1.28 ± 2.2,10.2 ± 27
"O=[N+]([O-])c1cc(Cl)c(Cl)c(Cl)c1Cl [2,3,4,5-Tetrachloronitrobenzene]",-3.6 ± 17,-5.15 ± 8.9,,44.9 ± 5.2,49.5 ± 10,42.4 ± 36
COP(=S)(Oc1cc(Cl)c(Br)cc1Cl)c1ccccc1 (centres undefined) [Leptophos],3.37 ± 19,-94.8 ± 3.7,41.6 ± 5.3,46.5 ± 3.1,33.4 ± 20,21.4 ± 11
"Nc1ccc([N+](=O)[O-])cc1N [4-Nitro-1,2-phenylenediamine]",1.34 ± 22,-16.4 ± 5.1,,41.6 ± 5.3,3.64 ± 4.4,46.2 ± 27
ClC1=C(Cl)C(Cl)(Cl)C(Cl)=C1Cl [Hexachlorocyclopentadiene],-11.3 ± 2.7,-137 ± 8.4,30.4 ± 13,,83.1 ± 8.1,48.2 ± 5.1
[OH-].c1cc[c]([Sn+]([c]2ccccc2)[c]2ccccc2)cc1 [Triphenyltin hydroxide],14.6 ± 2.5,-39.1 ± 94,,2.82,16.4 ± 2.2,429 ± 120
c1cc(OCC2CO2)ccc1Cc1ccc(OCC2CO2)cc1 (centres undefined) [Bis[4-(glycidyloxy)phenyl]methane],62.7 ± 21,-4.82 ± 8.3,,57 ± 12,-2.51 ± 4.3,-12 ± 59

# Continued, in another order:
efficacy of lysine peptide change [2],efficacy of cysteine peptide change [3],AC50 [5] [µM],Compound,cytotoxicity AC50 [1] [µM],efficacy of IL-8 induction (THP-1),efficacy of ARE luciferase induction [4]
28 ± 5.4,-109 ± 7.9,2.54 ± 0.48,O=C(CS)Nc1ccccc1 [Thioglycolic acid anilide],,35.1 ± 9.2,-15.9 ± 47
21.2 ± 7.3,-76.1 ± 14,62.8 ± 38,"CC(C)=CCC/C(C)=C\CO [(2Z)-3,7-Dimethylocta-2,6-dien-1-ol]",,3.59 ± 6.2,19 ± 27
12.6 ± 12,-95.2 ± 6.3,2.39 ± 0.7,CCCCC1C(=O)N(c2ccccc2)N(c2ccc(O)cc2)C1=O (centres undefined) [Oxyphenbutazone],11.7 ± 0.79,31.1 ± 25,221 ± 160
-22.5 ± 15,-69.8 ± 10,25.9 ± 11,Oc1ccc(/C=C/c2cc(O)cc(O)c2)cc1 [Resveratrol],,3.12 ± 5.4,29.2 ± 6.2
-80.7 ± 18,-75.7 ± 21,1.33 ± 0.83,O=C1c2cccc(O)c2C(=O)c2c(O)cc(CO)cc21 [Aloe-emodin],,-5.38 ± 9.3,35.9 ± 24
19.2 ± 21,-117 ± 8.1,23 ± 9,CO[C@@H]1[C@H](OC(=O)/C=C/C=C/C=C/C=C/C(=O)O)CC[C@]2(CO2)[C@H]1[C@@]1(C)O[C@@H]1CC=C(C)C [Fumagillin],,0,-9.86 ± 16
-11.4 ± 12,-101.7 ± 0.97,7.77 ± 3.2,"Nc1ccc(Nc2ccccc2)cc1 [N-Phenyl-1,4-benzenediamine]",,5.67 ± 11,48.5 ± 28
-14 ± 5.3,-42.3 ± 2.6,10.1 ± 5.7,COC(=O)Nc1nc2ccc(C(=O)C3CC3)cc2[nH]1 [Cyclobendazole],3 ± 0.85,24.9 ± 13,21.4 ± 9.4
2.12 ± 19,-30.6 ± 8,6.04 ± 4.1,C=CC(C)(CCC=C(C)C)OC(=O)CC(C)C (centres undefined) [Linalyl isovalerate],,0,4.06 ± 7
103 ± 44,61.4 ± 19,,CCCCCCCCCCCCCC[N+](C)(C)C [Tetradonium bromide],14.2 ± 1.6,43 ± 20,-21.2 ± 4.7
0.27 ± 31,2.83 ± 4.9,,c1ccc2[nH]c(-c3cscn3)nc2c1 [Thiabendazole],14.8 ± 1.9,11.1 ± 3.7,33 ± 4.4
17.2 ± 18,-82.9 ± 1.6,18.7 ± 3.4,CCN(CC)CCSC(=O)C(c1ccccc1)c1ccccc1 [Thiphenamil],,8.63 ± 8,63.3 ± 29
66 ± 24,8.87 ± 8.5,,CCCCCCCCCCCCCCCC[N+](C)(C)Cc1ccccc1 [Benzylhexadecyldimethylammonium chloride],31.8 ± 3.6,45 ± 9.3,-36.7 ± 2.6
10.3 ± 18,-88.2,44.7,CC(C)(C)c1ccc(S)cc1 [4-tert-Butylbenzenethiol],,16.3 ± 5.9,28 ± 17
-144 ± 8,-97.3 ± 8,0.36 ± 0.04,Oc1ccc2cc(SSc3ccc4cc(O)ccc4c3)ccc2c1 [6-Hydroxy-2-naphthyl disulfide],,52.2 ± 9.7,146 ± 38
-3.52 ± 14,-77.2 ± 7.4,33.1 ± 20,Cc1ccc(N)cc1O [5-Amino-2-methylphenol],,3.18 ± 5.5,59.5 ± 26
